Reference: patent US6531119B1, “Compositions with low irritancy” (priority 1998, dated 2003)

System: skin
Experiment: 21-Day Cumulative Irritation Test
Type: in vivo, human
Experimental: Each of the formulations of Examples 1-11 was evaluated for its tendency to cause skin erythema using the 21-Day Cumulative Irritation Test. In this test, 0.2 g of undiluted deodorant is applied daily for 21 days (excluding weekends) to the same 2-cm square patch of skin, which is occluded between applications. Each weekday during the test period, trained personnel grade the portion of skin where the test material is applied for signs of irritation and reapply the test material. Subjects fulfill specific inclusion criteria including not pregnant or breast feeding, over 18 years old, and without medical conditions which would interfere with the test. The grading system used is as follows:
0.5 Papular or papulovesicular response and/or dryness without erythema […]
The total score is calculated by summing each individual's score on the 21 days of the test. […] The normalized score is the total score divided by the total number of readings for all subjects and multiplied by 21 (the number of readings) and by 10 (to normalize to 10 subjects). Normalized scores are analyzed using ANOVA (analysis of variance technique described in Duncan, A. J., “Analysis of Variance”, Quality Control and Industrial Statistics (Irwin Publishers, Homewood, Ill. 1986) including the effects of subject and product. Product comparisons are made at the 5% level based on Fisher's least significant differences. […]

Which “Normalized Score” value (0.2 g undiluted product applied daily for 21 days to same occluded 2-cm square skin patch, total score normalized to 21 readings and 10 subjects) does the source give for CCCCCCCCCCCCOS(=O)(=O)[O-].[Na+] [Sodium Lauryl Sulfate] here?
Its value is 431.8.

And the “Irritation Classification” value (classification of the normalized score, 21-Day Cumulative Irritation Test)?
The value was “Moderate”.
